For orientation: IC50 means the concentration needed to halve the response being measured. Broadly, the Kd is the free concentration of one partner at which half of the binding sites on the other are occupied at equilibrium, for simple one-to-one binding.

“Also recorded” adds a separate entry of the source.

The test system of one test is T47D cells. As to the kind of experiment: Alkaline phosphatase activity in T47D cells (induction and its inhibition). It is filed as cell-based, human. To be noted: ligand alone; three days. The source says:
The functional activities of the cyclocymopol analogues in the human breast cell line, T47D, were also investigated. T47D cells have proven to be a particularly useful model to investigate the molecular actions of sex steroids because they contain endogenous functional receptors for, and respond to, progestins, and their respective antagonists. Moreover, these cells contain exceptionally high titers of progesterone receptors and are exquisitely sensitive to the actions of progestins in a manner quite similar to their actions in normal and neoplastic mammary epithelial cells. In T47D cells, progestins induce de novo synthesis of a plasma-associated alkaline phosphatase, which has been reported to be similar, if not identical, to the alkaline phosphatase present in the normal breast and human milk. These tests were conducted according to the following illustrative example. […] For routine induction of alkaline phosphatase, cells were treated for three days with two media changes and harvested as described below. […] Nuclei were sedimented at 2500 rpm, and the supernatant was saved as cytosol. The protein content of the cytosol was assayed by the method of Bradford. Alkaline phosphatase activity was determined by incubating one volume of cell extract with three volumes of 1 mg/ml p-nitrophenol phosphate prepared in DEAM (1M diethanolamine, pH=9, containing 2 mM magnesium chloride) at room temperature for 20 min. At the end of the incubation time, the reaction was stopped with an equal volume of 1N NaOH. Ten standards of p-nitrophenol were prepared in DEAM buffer and absorbance was read at 405 nm. Alkaline phosphatase activity is expressed as pmol p-nitrophenol formed/min/mg protein.

Test [1] deals with T1, human progesterone receptor (Homo sapiens, UniProt P06401).
T1 sequence (P06401 1-933): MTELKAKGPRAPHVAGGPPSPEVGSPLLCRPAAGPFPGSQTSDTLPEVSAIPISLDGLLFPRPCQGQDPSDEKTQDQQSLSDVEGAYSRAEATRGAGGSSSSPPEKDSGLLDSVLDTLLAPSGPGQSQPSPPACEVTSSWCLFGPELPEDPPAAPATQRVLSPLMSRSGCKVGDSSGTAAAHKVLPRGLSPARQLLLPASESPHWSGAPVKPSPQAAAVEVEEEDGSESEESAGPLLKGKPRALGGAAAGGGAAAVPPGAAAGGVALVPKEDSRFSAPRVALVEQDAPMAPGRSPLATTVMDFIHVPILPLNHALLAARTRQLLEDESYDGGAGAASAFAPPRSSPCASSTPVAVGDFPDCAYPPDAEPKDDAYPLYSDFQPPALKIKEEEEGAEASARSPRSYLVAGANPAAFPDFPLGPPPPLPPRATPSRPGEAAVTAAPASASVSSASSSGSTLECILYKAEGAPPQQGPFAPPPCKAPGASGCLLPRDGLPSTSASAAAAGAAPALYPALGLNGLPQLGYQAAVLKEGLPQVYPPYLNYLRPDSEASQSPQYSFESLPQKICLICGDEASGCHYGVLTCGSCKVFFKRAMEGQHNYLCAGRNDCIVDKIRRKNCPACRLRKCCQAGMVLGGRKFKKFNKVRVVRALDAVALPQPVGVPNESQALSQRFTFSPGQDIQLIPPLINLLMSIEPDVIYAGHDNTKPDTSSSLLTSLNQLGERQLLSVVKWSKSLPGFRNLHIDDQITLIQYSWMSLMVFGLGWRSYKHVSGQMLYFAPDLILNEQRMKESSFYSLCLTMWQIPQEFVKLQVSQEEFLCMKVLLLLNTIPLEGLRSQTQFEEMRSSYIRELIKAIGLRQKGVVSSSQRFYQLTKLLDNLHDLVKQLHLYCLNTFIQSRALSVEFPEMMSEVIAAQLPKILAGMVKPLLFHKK
In words: Co-transfection (cis-trans) assay in CV-1 cells, agonist and antagonist mode. Particulars: antagonist mode with 10^-8 M progesterone. Set-up: expressed in transfected cells; host or cells: CV-1 cells (calcium phosphate transfection), whole cell extract. It is filed as cell-based. From the text: This assay is described in further detail in U.S. Pat. Nos. 4,981,784 and 5,071,773, which are incorporated herein by reference. The co-transfection assay provides a method for identifying functional ligands (either agonists which mimic, or antagonists which inhibit, the effect of hormones) for ligand-responsive receptor proteins.
The co-transfection assay provides a mechanism to evaluate ability of a compound to function as an agonist or antagonist of the activity modulated by an intracellular receptor. The co-transfection assay mimics an in vivo system in the laboratory. In the co-transfection assay, a cloned gene for an intracellular receptor is introduced by transfection (a procedure to induce cells to take up foreign genes) into a background cell substantially devoid of endogenous intracellular receptors. This introduced gene directs the recipient cells to make the intracellular receptor protein. A second gene is also introduced (co-transfected) into the same cells in conjunction with the intracellular receptor gene. This second gene functions as a reporter for the transcription-modulating activity of the target intracellular receptor. The reporter acts as a surrogate for the products normally expressed by a gene under control of the target receptor and its natural hormone.
A preferred reporter gene is one which expresses the firefly enzyme luciferase. The co-transfection assay can detect small molecule agonists or antagonists of target intracellular receptors. Exposing the cells to an agonist ligand increases reporter activity in the transfected cells that can be conveniently measured, reflecting ligand-dependent, intracellular receptor-mediated increases in reporter transcription. To detect antagonists, the co-transfection assay is carried out in the presence of a constant concentration of an agonist known to induce a defined reporter signal. Increasing concentrations of a test antagonist will decrease the reporter signal. The co-transfection assay is therefore useful to detect both agonists and antagonists of specific intracellular receptors. It determines not only whether a compound interacts with a particular intracellular receptor, but also whether this interaction mimics (agonizes) or blocks (antagonizes) the effects of the natural regulatory molecules on target gene expression.
Co-transfected cells are exposed to a medium to which is added the potential ligand that is being evaluated. If the candidate ligand diffuses into the cell and binds to the receptor and the resulting complex functions as an agonist, it binds to the co-transfected reporter gene and initiates transcription. When that gene is one that expresses, for example, luciferase, luciferase is produced which catalyzes a light-emitting reaction with its substrate luciferin. Thus, after cell lysis and the introduction of luciferin, the amount of light produced relative to the concentration of candidate ligand used in the assay provides a measure of the potency and efficacy of the compound tested. Antagonist activity is evaluated by adding the candidate ligand and a known agonist to the co-transfected cells.
The receptor cDNA was introduced in a mammalian expression vector under the control of the Rous Sarcoma virus LTR. […] A reporter vector was also transfected, containing a firefly luciferase gene under the control of the hormone-responsive promoter. […] The level of luciferase activity was then measured in cell extracts. Light emission is directly proportional to the effectiveness of the hormone-receptor complex in activating gene expression.
A total of three replicates per concentration point were tested for each compound, and the EC50 was calculated for each positive response. Both agonist and antagonist activity for each test compound was determined in parallel.

For test [2] the following is noted: Wall et al., J. Nat. Prod. 1989; cited from earlier work.
Test [3] has as its system human progesterone receptor altered at the Tau-1 location. In words: Co-transfection assay in CV-1 cells, progesterone receptor altered at Tau-1, antagonist activity. It is filed as cell-based. Particulars: for Efficacy (% maximal response relative to RU-486), CV-1 cells: antagonist activity; for IC50: concentration required to reduce the maximal response by 50%, read-out: Potency (IC50), CV-1 cells. The method, boiled down: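 CV-1 cells co-transfected with RSV-LTR-driven human PR (altered at Tau-1) and a hormone-responsive luciferase reporter; antagonism measured against a fixed agonist concentration. Luciferase in cell extracts read, triplicate points, potency from concentration-response; […].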

In test [4] the test system is progesterone receptor (T47D cells). In words: Antagonist assay in T47D (human breast cancer) cells (Tables 1 and 2). It is filed as cell-based.
For test [5], the system named is endometrium of the uterus. In words: Decidualization assay in pseudopregnant mice, oil-induced uterine weight gain. Particulars: 5 mg. It is filed as in vivo. The procedure:
A successful pregnancy requires not only the effective collision and fusion of egg and spermatozoon, but also the provision of a receptive and supportive uterus. The preparation of the endometrium of the uterus for implantation (i.e. decidualization) starts well before the blastocyst arrives in the uterus.
Psuedopregnant mice (i.e. mated with vasectomized males) were used to establish the assay system. […] At 16 hours of Day 4, a small volume of sesame oil (10 μl) was introduced to the lumen of the right uterine horn to serve as a decidual stimulus. The left horn was left undisturbed to serve as an internal control. Autopsies were performed on Day 7 to assess uterine wet weight gains in the stimulated versus non-stimulated uterine horns.
Each of these compounds was intraluminally administered in an appropriate dosage on Day 4 along with the sesame oil administration.

The target in test [6] is T1, human progesterone receptor. In words: Progesterone receptor binding (displacement of 3H-progesterone, whole cell extract of transfected CV-1 cells). Set-up: expressed in transfected cells; host or cells: CV-1 cells (calcium phosphate transfection), whole cell extract. Background: Loss of bound radioactivity is the signal in a displacement assay; it reports binding, not function.

Turning to `C=C1CC[C@@H](Br)C(C)(C)[C@H]1Cc1cc(OC)c(Br)cc1OC(C)=O` [SO-51], the “Agonist activity, alkaline phosphatase induction” value in the test on T47D cells is recorded as “functional agonists; also recorded: increased the activity of intracellular alkaline phosphatase in a concentration-dependent manner”. Further, the “Progesterone receptor agonist/antagonist activity” value in test [1] is given as “progesterone receptor agonist activity”.
As to `CC1(C)[C@@H](Br)CC[C@@]2(C)Oc3cc(Br)c(O)cc3C[C@@H]12` [cymobarbatol], the Antimutagen activity result in test [2] is given as “highly active antimutagens”.
On to `C=C1C=C(C)CC(C)(C)C1Cc1ccc([N+](=O)[O-])cc1` (stereo not shown) [I, 1-Methylidene-6-(4'-nitrophenyl)methyl-3,5,5-trimethylcyclohex-2-ene], for which, in test [3], the “Efficacy (% maximal response relative to RU-486), CV-1 cells” value is 95%. Further, the IC50 was found to be 700 nM in test [3] and 125 nM in test [4] (concentration required to reduce the maximal response by 50%, read-out: Potency (IC50), T47D cells). Also, the “Efficacy (% maximal response relative to RU-486), T47D cells” value in test [4] (antagonist activity, relative to RU-486) was 75%. Also, the “Inhibition of decidualization weight gain” value in test [5] (vs oil control) is on record as “approximately 81%”. For the same molecule, in test [5] (intraluminal, autopsy Day 7, oil alone control 334.7 +/- 41.0), the “Net Uterine Weight Gain” value worked out at 63.9 ± 20.9 mg. Besides, the Kd in test [6] came to 55 nM.
Consider `C=C1CC[C@@H](Br)C(C)(C)[C@H]1Cc1cc(OC)c(Br)cc1O` [SO-54, (3S)-cyclocymopol monomethyl ether], for which, in test [3], the “Efficacy (% maximal response relative to RU-486), CV-1 cells” value is given as < 20% and the IC50 is > 10000 nM. In addition, the “Agonist activity, alkaline phosphatase induction” value in the test on T47D cells was “functional agonists; also recorded: increased the activity of intracellular alkaline phosphatase in a concentration-dependent manner”. Also, the “Progesterone receptor agonist/antagonist activity” value in test [1] is listed as “progesterone receptor agonist activity”. Further, the Kd in test [6] was 325 nM.
On to 4-isocymobarbatol, for which the Antimutagen activity entry in test [2] is “highly active antimutagens”.

Source of the values: patent publication US5808139A (Ligand Pharmaceuticals Incorporated, priority 1994, dated 1998).
